Reference: ChEMBL document CHEMBL1153463 (Bioorg Med Chem Lett, 2009)
pEC50: −log10 of the molar value.

How the values were obtained:
[1] = Metabolic stability in human liver mocrosomes; details: liver microsomes
[2] = system: Respiratory syncytial virus; assay: Antiviral activity against RSV assessed as inhibition of viral replication by cell based assay; assay type: functional, organism-based; details: human respiratory syncytial virus
[3] = Permeability across human Caco-2 cells
[4] = system: Respiratory syncytial virus; assay: Antiviral activity against RSV infected in BALB/c mouse assessed as log reduction in viral titer; assay type: functional
[5] = Volume of distribution at steady state in rat at 1 mg/kg, iv; details: in vivo
in vivo [6] = details: rat, iv, 1 mg/kg
in vivo [7] = details: rat, iv, 1 mg/kg; remark: listed apart in the source
[8] = system: Respiratory syncytial virus; assay: Antiviral activity against RSV infected in BALB/c mouse assessed as reduction viral replication by RT-PCR; assay type: functional
in vivo [9] = details: rat, po, 5 mg/kg
in vivo [10] = details: rat, po, 5 mg/kg; remark: listed apart in the source

| SMILES | half-life [1] | pEC50 [2] | other results |
| --- | --- | --- | --- |
| COCCCn1c(CN2C(=O)/C(=N/OC)c3ccccc32)nc2ccccc21 | 16 min | 7.52 | – |
| CC(C)(C)O/N=C1/C(=O)N(Cc2nc3ccccc3n2CCCCO)c2ccccc21 | – | 5.95 | – |
| CS(=O)(=O)CCCn1c(CN2C(=O)/C(=N/OCCF)c3ccncc32)nc2ccccc21 | > 100 min | 7.90 | Papp [3]: 1 ×10⁻⁶ cm/s |
| CS(=O)(=O)CCCn1c(CN2C(=O)/C(=N/OCc3ccccn3)c3ccncc32)nc2ccccc21 | 21 min | 7.54 | Papp [3]: 1.6 ×10⁻⁶ cm/s |
| COCCCn1c(CN2C(=O)/C(=N/OCS(=O)(=O)O)c3ccccc32)nc2ccccc21 | – | 7.34 | – |
| C=CCCO/N=C1/C(=O)N(Cc2nc3ccccc3n2CCCOC)c2ccccc21 | – | 6.59 | – |
| C=CCCCO/N=C1/C(=O)N(Cc2nc3ccccc3n2CCCOC)c2ccccc21 | – | 6.72 | – |
| CS(=O)(=O)c1ccc(CO/N=C2/C(=O)N(Cc3nc4ccccc4n3CCCCO)c3ncccc32)cc1 | 5.3 min | 8.14 | Papp [3]: 7.1 ×10⁻⁶ cm/s |
| O=C1/C(=N/OCCF)c2ccncc2N1Cc1nc2ccccc2n1CCCCO | 100 min | 7.27 | Papp [3]: 5.3 ×10⁻⁶ cm/s; deltaTCID50 [4]: 0.68 |
| CC(C)CCn1c(CN2C(=O)/C(=N/OCc3ccc(C(=O)N(C)C)cc3)c3ccccc32)nc2ccccc21 | – | 8.05 | – |
| CS(=O)(=O)c1ccc(CO/N=C2/C(=O)N(Cc3nc4ccccc4n3CCCCO)c3ccccc32)cc1 | 13 min | 7.92 | Papp [3]: 15.2 ×10⁻⁶ cm/s |
| COCCCn1c(CN2C(=O)/C(=N/OC(C)C)c3ccccc32)nc2ccccc21 | – | 6.59 | – |
| COCCCn1c(CN2C(=O)/C(=N/OC3CCOCC3)c3ccccc32)nc2ccccc21 | – | 6.69 | – |
| COCCCn1c(CN2C(=O)/C(=N/OCC(N)=O)c3ccccc32)nc2ccccc21 | 21 min | 6.81 | Papp [3]: 1.5 ×10⁻⁶ cm/s |
| COCCCn1c(CN2C(=O)/C(=N/OCCCN3CCCCC3)c3ccccc32)nc2ccccc21 | – | 6.54 | – |
| COCCCn1c(CN2C(=O)/C(=N/OCc3ccncc3)c3ccccc32)nc2ccccc21 | 0.6 min | 6.62 | Papp [3]: 21.4 ×10⁻⁶ cm/s |
| CO/N=C1/C(=O)N(Cc2nc3ccccc3n2CCCCF)c2cnccc21 | 26 min | 6.97 | Papp [3]: 12.8 ×10⁻⁶ cm/s |
| CC(=O)OCCCCn1c(CN2C(=O)/C(=N/OCc3ccc(S(C)(=O)=O)cc3)c3ccccc32)nc2ccccc21 | – | 8.30 | – |
| COCCCn1c(CN2C(=O)/C(=N/OCC(O)CC#N)c3ccccc32)nc2ccccc21 (centres undefined) | – | 7.19 | – |
| CCO/N=C1/C(=O)N(Cc2nc3ccccc3n2CCCOC)c2ccccc21 | – | 7.23 | – |
| N#CCCCn1c(CN2C(=O)/C(=N/OCC(N)=O)c3ccccc32)nc2ccccc21 | – | 7.35 | Papp [3]: 3 ×10⁻⁶ cm/s |
| CCCO/N=C1/C(=O)N(Cc2nc3ccccc3n2CCCOC)c2ccccc21 | – | 6.83 | – |
| C=CCO/N=C1/C(=O)N(Cc2nc3ccccc3n2CCCS(C)(=O)=O)c2cnccc21 | – | 7.91 | – |
| COCCCn1c(CN2C(=O)/C(=[N+](/[O-])C3CCCCC3)c3ccccc32)nc2ccccc21 | – | 6.55 | – |
| COCCCn1c(CN2C(=O)/C(=N/OC3CCCCC3)c3ccccc32)nc2ccccc21 | – | 6.19 | – |
| CC(=O)OCCCCn1c(CN2C(=O)/C(=N/O)c3cccnc32)nc2ccccc21 | 1.3 min | 7.30 | Papp [3]: 1.2 ×10⁻⁶ cm/s |
| C=CCO/N=C1/C(=O)N(Cc2nc3ccccc3n2CCCOC)c2ccccc21 | – | 6.37 | – |

| SMILES | half-life [1] | pEC50 [2] | other results |
| --- | --- | --- | --- |
| COCCCn1c(CN2C(=O)/C(=N/OCCCCOC(C)=O)c3ccccc32)nc2ccccc21 | – | 7.21 | – |
| COCCCn1c(CN2C(=O)/C(=N/OCCN(C)C)c3ccccc32)nc2ccccc21 | – | 6.43 | – |
| CO/N=C1/C(=O)N(Cc2nc3ccccc3n2CCCCO)c2cnccc21 | 84 min | 7.51 | Papp [3]: 9.8 ×10⁻⁶ cm/s |
| COCCCn1c(CN2C(=O)/C(=N/OCCCC#N)c3ccccc32)nc2ccccc21 | – | 7.10 | – |
| CC(=O)OCCCCn1c(CN2C(=O)/C(=N/OCCF)c3cccnc32)nc2ccccc21 | – | 7.26 | – |
| COCCCn1c(CN2C(=O)/C(=N/OCCN3CCCCC3)c3ccccc32)nc2ccccc21 | – | 6.17 | – |
| COCCCn1c(CN2C(=O)/C(=N/OCc3ccccn3)c3ccccc32)nc2ccccc21 | – | 6.62 | – |
| CC(C)CCn1c(CN2C(=O)/C(=N/Oc3ccccc3)c3ccccc32)nc2ccccc21 | – | 6.43 | – |
| CC(C)CCn1c(CN2C(=O)/C(=N/OCc3ccc(C(=O)O)cc3)c3ccccc32)nc2ccccc21 | – | 7.80 | – |
| CN(C)CCn1c(CN2C(=O)/C(=N/OCc3ccc(C(=O)O)cc3)c3ccccc32)nc2ccccc21 | – | 7.78 | – |
| CCC(CC)/[N+]([O-])=C1\C(=O)N(Cc2nc3ccccc3n2CCCOC)c2ccccc21 | – | 6.05 | – |
| COCCCn1c(CN2C(=O)/C(=N/OCC(=O)O)c3ccccc32)nc2ccccc21 | – | 6.53 | – |
| COCCCn1c(CN2C(=O)/C(=N/OC(CC(O)O)C(O)O)c3ccccc32)nc2ccccc21 (centres undefined) | – | 7.72 | – |
| CO/N=C1/C(=O)N(Cc2nc3ccccc3n2CCCCOC(C)=O)c2ccccc21 | 1.5 min | 7.52 | – |
| COCCCn1c(CN2C(=O)/C(=N/OCC(F)(F)F)c3ccccc32)nc2ccccc21 | 3.2 min | 5.56 | Papp [3]: 65.2 ×10⁻⁶ cm/s |
| O=C1/C(=N/OCCF)c2ccncc2N1Cc1nc2ccccc2n1CCCCF | 38 min | 7.21 | Papp [3]: 15.8 ×10⁻⁶ cm/s |
| COCCCn1c(CN2C(=O)/C(=N/OCC3CCC3)c3ccccc32)nc2ccccc21 | – | 6.61 | – |
| N#CCCCn1c(CN2C(=O)/C(=N/OCC(F)(F)F)c3cccnc32)nc2ccccc21 | 48 min | 6.95 | Papp [3]: 18 ×10⁻⁶ cm/s |
| COCCCn1c(CN2C(=O)/C(=N/OCc3ccc(C(=O)N(C)C)cc3)c3ccccc32)nc2ccccc21 | – | 7.52 | Papp [3]: 23.7 ×10⁻⁶ cm/s |
| O=C1/C(=N/O)c2ccncc2N1Cc1nc2ccccc2n1CCCCF | 100 min | 7.75 | Papp [3]: 2.7 ×10⁻⁶ cm/s |
| COC(=O)c1ccc(CO/N=C2/C(=O)N(Cc3nc4ccccc4n3CCN(C)C)c3ccccc32)cc1 | 0.6 min | 7.64 | – |
| CC(C)CCn1c(CN2C(=O)/C(=N/Oc3ccc(Br)cc3)c3ccccc32)nc2ccccc21 | – | 6.15 | – |
| C#CCCCO/N=C1/C(=O)N(Cc2nc3ccccc3n2CCCOC)c2ccccc21 | – | 7.19 | – |
| CCCCCO/N=C1/C(=O)N(Cc2nc3ccccc3n2CCCOC)c2ccccc21 | – | 6.73 | – |
| CO/N=C1/C(=O)N(Cc2nc3ccccc3n2CCCC#N)c2ncccc21 | 28 min | 7.03 | Papp [3]: 16 ×10⁻⁶ cm/s |
| COCCCn1c(CN2C(=O)/C(=[N+](/[O-])C(C)C)c3ccccc32)nc2ccccc21 | – | 6.64 | – |
| COCCCn1c(CN2C(=O)/C(=N/OCC3CCCO3)c3ccccc32)nc2ccccc21 (centres undefined) | – | 6.82 | – |

| SMILES | half-life [1] | pEC50 [2] | other results |
| --- | --- | --- | --- |
| CS(=O)(=O)CCCn1c(CN2C(=O)/C(=N/OCc3ccc(S(C)(=O)=O)cc3)c3cnccc32)nc2ccccc21 | 200 min | 4.97 | – |
| CO/N=C1/C(=O)N(Cc2nc3ccccc3n2CCCCO)c2ccccc21 | – | 8.00 | – |
| O=C1/C(=N/OCCF)c2cccnc2N1Cc1nc2ccccc2n1CCCCO | 44 min | 7.37 | Papp [3]: 11.5 ×10⁻⁶ cm/s; deltaTCID50 [4]: 0.62 |
| COC(=O)c1ccc(CO/N=C2/C(=O)N(Cc3nc4ccccc4n3CCC(C)C)c3ccccc32)cc1 | 0.6 min | 7.64 | – |
| COCCCn1c(CN2C(=O)/C(=N/OCCF)c3ccccc32)nc2ccccc21 | – | 7.15 | – |
| O=C1/C(=N/OCC(F)(F)F)c2cccnc2N1Cc1nc2ccccc2n1CCCCO | 65 min | 7.10 | Papp [3]: 15.4 ×10⁻⁶ cm/s |
| CO/N=C1/C(=O)N(Cc2nc3ccccc3n2CCC(C)C)c2ccccc21 | – | 7.06 | – |
| N#CCCCn1c(CN2C(=O)/C(=N/O)c3cccnc32)nc2ccccc21 | 100 min | 7.64 | Papp [3]: 4.2 ×10⁻⁶ cm/s |
| COC(=O)c1ccc(CO/N=C2/C(=O)N(Cc3nc4ccccc4n3CCNS(C)(=O)=O)c3ccccc32)cc1 | – | 7.29 | – |
| COCCCn1c(CN2C(=O)/C(=N/OCC3CC3)c3ccccc32)nc2ccccc21 | – | 7.02 | – |
| COCCCn1c(CN2C(=O)/C(=N/OCCC3CCCCC3)c3ccccc32)nc2ccccc21 | – | 6.42 | – |
| CCN(CC)C(=O)CO/N=C1/C(=O)N(Cc2nc3ccccc3n2CCCOC)c2ccccc21 | – | 7.59 | – |
| CC(C)CCn1c(CN2C(=O)/C(=N/OCc3ccccc3)c3ccccc32)nc2ccccc21 | – | 6.69 | – |
| N#CCCCn1c(CN2C(=O)/C(=N/OCCF)c3cccnc32)nc2ccccc21 | 55 min | 7.24 | Papp [3]: 15.5 ×10⁻⁶ cm/s |
| COCCCn1c(CN2C(=O)/C(=N/OCc3cccnc3)c3ccccc32)nc2ccccc21 | – | 6.85 | – |
| COCCCn1c(CN2C(=O)/C(=N/OCc3ccc(C(=O)OC)cc3)c3ccccc32)nc2ccccc21 | – | 7.30 | – |
| CS(=O)(=O)c1ccc(CO/N=C2/C(=O)N(Cc3nc4ccccc4n3CCCC#N)c3ccncc32)cc1 | 29 min | 4.99 | – |
| CO/N=C1/C(=O)N(Cc2nc3ccccc3n2CCCCO)c2ncccc21 | 31 min | 7.51 | Papp [3]: 14.1 ×10⁻⁶ cm/s |
| COCCCn1c(CN2C(=O)/C(=N/OCCCN(C)C)c3ccccc32)nc2ccccc21 | – | 6.62 | – |
| CS(=O)(=O)CCCn1c(CN2C(=O)/C(=N/OCCF)c3cccnc32)nc2ccccc21 | > 100 min | 7.53 | Vd [5]: 1.8 L/kg; Papp [3]: 18.2 ×10⁻⁶ cm/s; half-life (in vivo [6]): 12 min; deltaTCID50 [4]: 1.05; clearance (in vivo [7]): 130 mL/min/kg; Ratio [8]: 45; bioavailability (in vivo [9]): 14%; Cmax (in vivo [10]): 14 ng/mL |
| CC(C)CCn1c(CN2C(=O)/C(=N/O)c3ccccc32)nc2ccccc21 | – | 8.00 | – |
| N#CCCCn1c(CN2C(=O)/C(=N/OCC(F)(F)F)c3ccccc32)nc2ccccc21 | 18 min | 7.18 | – |
| CCCCO/N=C1/C(=O)N(Cc2nc3ccccc3n2CCCOC)c2ccccc21 | – | 6.58 | – |
| COCCCn1c(CN2C(=O)/C(=N/OCCCF)c3ccccc32)nc2ccccc21 | – | 6.90 | – |
| CCC(CC)O/N=C1/C(=O)N(Cc2nc3ccccc3n2CCCOC)c2ccccc21 | – | 6.03 | – |
